Patent publication US20100190737A1, “COMPOSITIONS COMPRISING INOSINE AND OROTIC ACID AND METHODS OF USE THEREOF FOR THE TREATMENT OF CERTAIN HEART CONDITIONS AND ENHANCEMENT OF WORK CAPACITY” (NUTRITIONAL RESEARCH GROUP LLC, priority 2009, published 2010)

Key:
patients with arrhythmia = assay: Case studies: patients with arrhythmia given inosine/magnesium orotate capsules; assay type: in vivo, human; settings: Example 5
Description: Another cardiac condition prevalent in the population is arrhythmia. Cardiac arrhythmia is characterized by an abnormal rate of cardiac muscle contractions. The rate of contractions may be too slow, too fast, too frequent or too infrequent. The present pharmaceutical composition stabilizes the cardiac arrhythmia.

[1] = system: chinchilla rabbits with experimental myocardial infarction; assay: Experimentally-induced myocardial infarction (coronary artery ligation); assay type: in vivo, rabbit; settings: for NN of Animals With Necrosis: of 10 animals; for EKG Q: oral 100 mg/kg BW of each ingredient daily
Procedure: Histological, light microscopic methods of investigation have been employed to study the zone of necrosis, perinecrotic zone and myocardium regions spaced from the time of infarction by 7 and 14 days after the infarction event. Dynamic electrocardiographic observation over the animals was carried out during the first day and during the following 7 and 14 days. The study of the total cross-sectional patterns of a rabbit's heart has made it possible to precisely define these zones. The first Group of 10 animals was sham-operated without treatment (Group I, positive control-Intact, no MI). […] Group II animals were without treatment (negative control-MI Control).

mice = assay: Short term (14 day) work capacity: swimming lengths within 30 minutes, hepatic glycogen; assay type: in vivo, mouse; settings: for Swimming lengths / increase in number of swimming lengths: 14 days
Procedure: Seventy two animals (mice) were divided into 12 groups of 6 animals each; a control group (untreated) and 11 test groups that were intragastrically administered varying daily doses of inosine, potassium orotate or an inosine plus potassium orotate combination (the “combination”) for 14 days. […] The swimming exercise consisted of forcing the animals to perform repetitive swimming in a three meter long channel until exhaustion. The level of exhaustion was determined by a count of the number of swimming lengths which each animal did within 30 minutes. A lower number of swimming lengths indicated a greater level of exhaustion, whereas a higher number of lengths indicated a greater work capacity.

[2] = system: rats with experimental aortic stenosis; assay: Short term (7 day) experimental aortic stenosis: heart weight and swimming to exhaustion; assay type: in vivo, rat; settings: EAS rats; for Heart Weight: intragastric daily
Description: There are two 7 day experiments in this portion of the study; a preliminary 7 day study with 54 rats in 9 groups (6 rats per group) to determine optimal dosage levels for the separate inosine or potassium orotate ingredients for farther experimentation by determination of maximal heart weight development and work capacity; and then a study with 30 rats in 5 groups (6 rats per group) using the optimal single ingredient dosage levels for comparison with the results of a composition of the ingredients. All compounds were administered intragastrically through a tube after being dissolved in approximately 1 ml of water.
A single control group received a sham operation, while the rest of the groups received experimental aortic stenosis (“EAS”) operations (all according to Beznak in Journal Physiol. (Lond.) 120.23P, 1953 as modified by Kogan, Bull eksper. Biol. Med., 26:112, 1961 and then the other 13 groups received various treatments and dosages of inosine or potassium orotate or a composition of the two ingredients after the optimal inosine and potassium orotate dosages were determined. All animals were tested at the beginning and end of the experiment for swimming to exhaustion times with a 7.5% body weight load attached to their tails.
Sach compound, i.e., inosine and potassium orotate, was administered at different doses and the level of heart hypertrophy and work capacity was observed. Each of the compounds was evaluated in four doses: 12.5 mg/kg, 25 mg/kg, 50 mg/kg and 100 mg/kg body weight. Six animals were used in each group for inosine [4 groups] and potassium orotate [4 groups] plus the one control group (sham operated, no treatment); 54 animals in total.
Thirty white rats were divided into 5 groups (6 animals in each group). Group I was a sham-operated control group, Group II animals with experimental aortic stenosis but were untreated, Groups III, IV & V animals, all with experimental aortic stenosis received by an intragastric tube each day, either inosine (25 mg/kg body weight), potassium orotate (50 mg/kg body weight) or an composition of inosine (25 mg/kg body weight) plus potassium orotate (50 mg/kg body weight), respectively.

white rats = assay: Long-term (6 months) work capacity in trained and non-trained rats; settings: untrained rats
Procedure: Seventy two white rats were randomly placed in 6 groups (12 animals each), to test the effectiveness of training and to determine morphological and physiological alterations in the rats. In Group I, control rats were nontrained and not administered either of inosine or the combination of inosine and orotate; Group II comprised non-trained rats to which were administered inosine (25 mg/kg/body weight; Group III comprised non-trained rats to which were administered the combination of inosine plus potassium orotate (25 mg/kg/body weight of inosine and 50 mg/kg/body weight potassium orotate); Group IV comprised trained rats that were not administered either of inosine or the combination of inosine and orotate; Group V comprised trained rats to which was administered inosine alone (25 mg/kg/body weight), and Group VI comprised trained rats to which was administered the combination of inosine plus potassium orotate (25 mg/kg/body weight of inosine and 50 mg/kg/body weight potassium orotate).
Training of rats consisted of their forced swimming in a water bath (28-30° C.) with a weight fixed on their backs (7.5% of the rat body weight). During the first two weeks the animals swam daily for 5-10 minutes, after which we determined the individual maximum time of swimming to exhaustion (i.e. maximum work capacity) for each animal and then calculated the mean maximum time for each group. After 2 weeks these initial maximum work capacity values were used for planning and performing additional swimming training.
The functional condition of the rats at rest was estimated from their work capacity (maximum swimming time), body weight increase, EKG tests, oxygen consumption and sodium and potassium levels in the myocardium in a relatively quiet state. The morphological state of the heart and other viscera were rated from their absolute and relative weights, and also from histological and histochemical examinations of the myocardium. Also determined were the amounts of glycogen in the m. quadriceps (quadriceps group of muscles) of the hip, the myocardium and the liver. All the quantitative results obtained were processed with conventional statistical procedures.

[3] = seventh day, inosine 25 mg/kg BW, potassium orotate 50 mg/kg BW, alone or together
[4] = seventh day, inosine 25 mg/kg BW, potassium orotate 50 mg/kg BW, alone or together, listed as orotate

## CCC(=O)O[C@@H](O[P@](=O)(CCCCc1ccccc1)CC(=O)N1C[C@H](C2CCCCC2)C[C@H]1C(=O)[O-])C(C)C.[Na+] [Monopril]
Patients with arrhythmia; 10 mg Monopril with 50 mg Toprol daily, one month, from 165/105
  blood pressure (systolic over diastolic): 150/95
Patients with arrhythmia; Monopril increased to 20 mg
  blood pressure (systolic over diastolic): 145/90

## COCCc1ccc(OCC(O)CNC(C)C)cc1 (centres unmarked) [Toprol]
Patients with arrhythmia; 50 mg Toprol daily, one month, from 3-4 times weekly
  arrhythmia episodes per week: 2-3 per week

## O=C(O)c1cc(=O)[nH]c(=O)[nH]1 [orotic acid]
[1]; Day 7
  Thickness of Left Ventricular Wall: 5.0 ± 0.61 mm
  EKG Q: 1.0 ± 0.02 mm
[1]; Day 7, 100 mg/kg BW each
  EKG QRS: 0.07 ± 0.003 s
  EKG R: 4.2 ± 0.030 mm
[1]; Day 7, MI control 10
  NN of Animals With Necrosis: 5
[1]; Day 14
  EKG QRS: 0.06 ± 0.016 s
  EKG R: 4.4 ± 0.27 mm
  Thickness of Left Ventricular Wall: 5.4 ± 0.23 mm
  EKG Q: 0.6 ± 0.05 mm
[1]; Day 14, MI control 3
  NN of Animals With Necrosis: 0
[1]; administered individually, 100 mg/kg
  reduction in necroses: 50%
[1]; by the fourteenth day
  hemorrhages or infiltration in the infarction zone: virtually had no hemorrhages or infiltration in the infarction zone
[1]; by the seventh experimental day
  restoration of EKG readings: nearly a complete restoration of the voltage of EKG waves and of the systolic index

## O=C([O-])c1cc(=O)[nH]c(=O)[nH]1.[K+] [potassium orotate]
mice; 25 mg/kg BW
  Swimming lengths: 40.2
mice; 25 mg/kg/body weight daily
  increase in number of swimming lengths: 60.7%
mice; 50 mg/kg BW
  Swimming lengths: 45.6
mice; 50 mg/kg/body weight daily
  increase in number of swimming lengths: 82.2%
mice; 100 mg/kg BW
  Swimming lengths: 56.3
mice; 100 mg/kg/body weight daily
  increase in number of swimming lengths: 125%
mice; 200 mg/kg BW
  Swimming lengths: 44.6
mice; 200 mg/kg/body weight daily
  increase in number of swimming lengths: 78.3%
mice; controls 67.5% from baseline
  mean decrease of hepatic glycogen stores during the swimming exercise: 18.5%
mice; inosine 25 mg/kg, potassium orotate 50 mg/kg, or combination
  increased hepatic glycogen content: 18%
[2]; day 7, 12.5 mg/kg intragastrically, EAS control 15±5.0, sham 62±5.0
  swimming time: 18 ± 4.0 min
[2]; day 7, 25 mg/kg
  swimming time: 22 ± 3.0 min
[2]; day 7, 50 mg/kg
  swimming time: 32 ± 3.0 min
[2]; day 7, 100 mg/kg
  swimming time: 30 ± 3.0 min
[2]; seventh day, 12.5 mg/kg, EAS control 400±8.9, sham 300±5.0
  relative heart weight: 420±6.0 mg/100 g. body weight
[2]; seventh day, 25 mg/kg
  relative heart weight: 440±11 mg/100 g. body weight
[2]; seventh day, 50 mg/kg
  relative heart weight: 460±16 mg/100 g. body weight
[2]; seventh day, 100 mg/kg
  relative heart weight: 465±15 mg/100 g. body weight
[2]; [3]
  swimming time: 33 ± 4 min
  Heart Weight: 460±16 mg/100 gr BW
[2]; [4]
  Heart Weight: 460 ± 16 mg/100 gr BW
  swimming time: 33 ± 4.0 min
White rats
  Heart weight after 6 mo.: 304 ± 9.2 mg/100gk BW
  Oxygen consumption End of experiment: 27.0 ± 0.60 ml/min/kg BW
  Swimming time Before: 72 ± 4.0 min
White rats; end of experiments
  Glycogen in m. quadriceps, After work: 488 ± 15.0
  Glycogen in m. quadriceps, In rest: 860 ± 16.0
White rats; INO 25 mg/kg, PO 50 mg/kg
  Swimming time After 6 mo.: 80 ± 4.2 min
